From PubChem BioAssay (NCI)
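Compound exposure: 48 hours, 5 concentrations, 96-well plates. GI50: concentration for 50% inhibition of growth. Definition used: TGI = concentration required for complete inhibition of growth.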

How the values were obtained:
Test in all cases: NCI tumour cell line growth inhibition, 48 h
A498 renal = system: A498 renal
DMS 273 small cell lung = system: DMS 273 small cell lung
SK-MEL-28 melanoma = system: SK-MEL-28 melanoma
SK-MEL-5 melanoma = system: SK-MEL-5 melanoma
SNB-75 CNS = system: SNB-75 CNS
TK-10 renal = system: TK-10 renal
UACC-257 melanoma = system: UACC-257 melanoma
XF 498 CNS = system: XF 498 CNS
SNB-19 CNS = system: SNB-19 CNS
SR leukemia = system: SR leukemia

SMILES | TGI (A498 renal) [µM] | TGI (DMS 273 small cell lung) [µM] | TGI (SK-MEL-28 melanoma) [µM] | TGI (SK-MEL-5 melanoma) [µM] | TGI (SNB-75 CNS) [µM] | TGI (TK-10 renal) [µM] | TGI (UACC-257 melanoma) [µM] | TGI (XF 498 CNS) [µM] | TGI (SNB-19 CNS) [µM] | TGI (SR leukemia) [µM] | GI50 (A498 renal) [µM] | GI50 (SK-MEL-28 melanoma) [µM] | GI50 (SK-MEL-5 melanoma) [µM] | GI50 (SNB-19 CNS) [µM] | GI50 (SNB-75 CNS) [µM] | GI50 (SR leukemia) [µM] | GI50 (TK-10 renal) [µM] | GI50 (UACC-257 melanoma) [µM]
CCN(CC)CC(C(=O)Nc1c(C)cccc1C)/C(C)=N/NC(N)=S (configuration not stated) | > 100 | > 100 | > 100 | > 100 | > 100 | > 100 | > 100 | > 100 |  |  |  |  |  |  |  |  |  | 
Cc1cn2cc(-c3ccncc3)nc2s1 | > 100 | > 100 | > 100 | > 100 | > 100 | > 100 | > 100 | > 100 | > 100 |  |  |  |  |  |  |  |  | 
O=C(Nc1cccc(Cl)c1)c1cc2cc(N=Nc3ccc(Br)cc3)ccc2oc1=O | > 100 | 55.6 | > 100 | > 100 | > 100 | > 100 | > 100 | > 100 | > 100 |  |  |  |  |  |  |  |  | 
CC/C(=C(\c1ccccc1)c1ccc(OCC[N+](C)(C)C)cc1)c1ccccc1 | 40.6 | 19.9 | 22.2 | 16.4 | 23.9 |  | 24.4 |  | 37.1 |  |  |  |  |  |  |  |  | 
CC(=O)OC12CCCCC1C1(CCCC1)NC2=O (configuration not stated) | > 100 |  | > 100 |  | > 100 | > 100 | > 100 | > 100 | > 100 | > 100 |  |  |  |  |  |  |  | 
Nc1n[nH]c(=O)c2c1c(Br)cn2C1OC(CO)C(O)C1O (configuration not stated) | > 71.2 | > 41.2 | 26.6 | 45.4 | 11.2 | > 100 | > 77.9 |  | > 100 | 14.3 |  |  |  |  |  |  |  | 
O=C1c2ccccc2CC1C1(O)C(=O)Nc2c(Cl)cc(Cl)cc21 (configuration not stated) |  | > 100 | > 100 | > 100 | > 100 | > 100 | > 100 | > 100 | > 100 |  |  |  |  |  |  |  |  | 
C[As](C)SCC(COC(=O)c1ccccc1)OC(=O)c1ccccc1 (configuration not stated) | 1.15 |  | 17.4 | 0.0678 | 12.7 | 0.126 | 1.51 |  | 19.6 | 0.183 | 0.135 | 0.504 | 0.015 | 3.63 | 0.968 | 0.0241 | 0.0159 | 0.066
N#Cc1ccccc1C#C/C=C\C#Cc1cnccn1 | 52.3 |  | > 100 | 45.4 | > 100 | 63.6 | > 82.3 |  | > 89.4 | > 79.7 | 16.2 | 35.2 | 17 | 30.2 | > 73.9 | > 20.7 | 13 | 26.5
O=C1[C@@H]2C3C=CC([C@H]4C(=O)N(CO)C(=O)[C@@H]34)[C@@H]2C(=O)N1CO | > 100 | > 57.3 | > 100 | > 100 | > 100 | > 100 | > 100 | > 100 | > 100 |  |  |  |  |  |  |  |  | 
COc1cc(/C=C/C(=O)C(C)(C)C)cc(OC)c1OC |  | > 100 | > 100 | > 100 | 68.5 | > 100 | > 100 | > 100 | > 100 | > 100 |  |  |  |  |  |  |  | 
O=c1c2ccccc2nc(-c2ccccc2Cl)n1NC1OC(CO)C(O)C(O)C1O (configuration not stated) | > 100 | > 100 | > 100 | > 100 | > 100 | > 100 | > 100 | > 100 | > 100 |  |  |  |  |  |  |  |  | 
O=C(/C=C/CN1CCCCC1)Nc1cc2c(Nc3ccc(F)c(Cl)c3F)ncnc2cc1OCCOC(F)F | 2.02 |  | 9.19 | 3.07 | 4.81 | 1.36 | 5.64 |  | 13.5 | 4.24 | 0.299 | 2.27 | 1.54 | 1.94 | 0.265 | 0.598 | < 0.01 | 1.74
Cc1cccc(NC(=O)c2sc3nc4c(cc3c2N)CCC4)c1C | 0.938 |  | 39.6 | 11.1 | 0.815 | 26.5 | 46.6 |  | 29.1 | 10.2 | 0.262 | 0.803 | 0.268 | 0.532 | 0.189 | 0.191 | 0.74 | 2.67
Cn1c(N)c(N=Nc2ccc(S(N)(=O)=O)cc2)c(=O)n(C)c1=O | > 100 |  | > 100 | > 100 | 56.2 | > 100 | > 100 |  | > 100 | > 100 |  |  |  |  |  |  |  | 
S=C(N/N=C/c1ccccc1)NC1CC(c2ccccc2)Oc2ccccc21 (configuration not stated) |  | > 100 | > 100 | 65.8 | 31.3 |  |  | > 100 | > 100 | > 100 |  |  |  |  |  |  |  | 
COc1ccc(C2CC(c3cccc(Nc4ccnc5cc(Cl)ccc45)c3)=NN2c2ccc(Cl)cc2)cc1 (configuration not stated) | 53.9 |  | 66.9 | 10.2 | 97.9 | > 100 | 51.4 |  | > 100 | 32.5 | 4.64 | 7.07 | 3.01 | 15.9 | 12.5 | 4.29 | 12.9 | 6.4
CN1CCN(Cc2ccc(NC(=O)c3cncc(C#Cc4c(N)ncc5ccc(F)cc45)c3)cc2C(F)(F)F)CC1 | 1.26 |  | 1.37 | 1.36 | 2.66 | 2.29 | 1.69 |  | 12 | 11.3 | 0.299 | 0.621 | 0.69 | 3.47 | 0.721 | 0.809 | 0.96 | 0.694
Cn1cnc2nc(Cl)nc(Cl)c21 | 6.77 |  | 16.5 | 10.8 | 13.4 | 26.2 | 24.8 |  | 57.8 | 28.7 | 2.2 | 4.35 | 2.7 | 5.79 | 2.48 | 0.599 | 3.84 | 7.84
